Measurements taken from the NIST ThermoML archive (doi:10.1016/j.fluid.2009.09.024).
Values joined by “and” are separate entries in the source; they are usually repeats but may differ in a detail not shown here. Equal values may be shown once. Numbers after ± are expanded uncertainties.

Tests used:
[1] = xn = mol fraction of the nth substance listed; conditions: Liquid, Vibrating tube method
[2] = for vapor or sublimation pressure: Closed cell (Static) method; for mass density: Vibrating tube method

CCCCCCCCC [nonane] + c1ccccc1
mass density [kg/m3], [1]
Conditions | 333.15 K | 353.15 K
x2 = 0 | 685.961 ± 0.25 | 669.919 ± 0.25
x2 = 0.1 | 700.985 ± 0.38 | –
x2 = 0.101 | – | 684.481 ± 0.38
x2 = 0.199 | – | 698.728 ± 0.37
x2 = 0.2 | 715.957 ± 0.38 | –
x2 = 0.248 | – | 705.756 ± 0.36
x2 = 0.3 | – | 713.217 ± 0.36
x2 = 0.302 | 731.175 ± 0.37 | –
x2 = 0.399 | – | 727.581 ± 0.36
x2 = 0.404 | 746.508 ± 0.36 | –
x2 = 0.499 | – | 741.992 ± 0.35
x2 = 0.502 | 761.194 ± 0.36 | –
x2 = 0.599 | 775.788 ± 0.35 | 756.286 ± 0.35
x2 = 0.699 | 790.766 ± 0.35 | –
x2 = 0.701 | – | 771.023 ± 0.34
x2 = 0.799 | 805.683 ± 0.34 | 785.21 ± 0.34
x2 = 0.899 | 820.654 ± 0.34 | 799.582 ± 0.33
x2 = 0.94 | 826.713 ± 0.34 | –
x2 = 0.969 | 831.191 ± 0.34 | –

O=S1(=O)CCCC1 [sulfolane]
[2], Liquid
Conditions | mass density [kg/m3] | vapor or sublimation pressure [kPa]
333.15 K | 1231.12 ± 0.42 | 0.01 ± 0.01
353.15 K | 1214.39 ± 0.41 | 0.04 ± 0.01

O=S1(=O)CCCC1 [sulfolane] + Cc1cccc(C)c1
mass density [kg/m3], [1]
Conditions | 333.15 K | 353.15 K
x2 = 0 | 1231.12 ± 0.42 | 1214.39 ± 0.41
x2 = 0.01 | 1227.11 ± 0.9 | –
x2 = 0.015 | 1225.1 ± 0.9 | 1208.34 ± 0.9
x2 = 0.02 | 1223.09 ± 0.9 | 1206.33 ± 0.9
x2 = 0.03 | 1219.07 ± 0.9 | 1202.3 ± 0.9
x2 = 0.05 | – | 1194.25 ± 0.9
x2 = 0.1 | 1190.81 ± 0.89 | 1173.97 ± 0.89
x2 = 0.199 | 1150.86 ± 0.88 | 1133.93 ± 0.87
x2 = 0.299 | 1110.94 ± 0.86 | 1093.91 ± 0.86
x2 = 0.399 | 1070.45 ± 0.86 | 1053.33 ± 0.85
x2 = 0.501 | 1029.46 ± 0.84 | 1012.24 ± 0.84
x2 = 0.6 | 989.939 ± 0.84 | 972.621 ± 0.84
x2 = 0.7 | 949.485 ± 0.84 | 932.07 ± 0.84
x2 = 0.799 | 909.766 ± 0.83 | 892.257 ± 0.84
x2 = 0.9 | 869.443 ± 0.83 | 851.836 ± 0.84

c1ccccc1 [benzene]
[2]
Conditions | mass density, 333.15 K [kg/m3] | mass density, 353.15 K [kg/m3] | vapor or sublimation pressure, 333.15 K [kPa] | vapor or sublimation pressure, 353.15 K [kPa]
Gas | 1.5172 ± 0.1 | 2.69 ± 0.1 | – | –
Liquid | 835.696 ± 0.16 | 814.086 ± 0.16 | 52.45 ± 0.27 | 100 ± 0.51

Cc1cccc(C)c1 [1,3-dimethylbenzene] + O=S1(=O)CCCC1
[1], x1 = 1
Conditions | mass density [kg/m3]
333.15 K | 829.305 ± 0.24
353.15 K | 811.602 ± 0.24

Cc1cccc(C)c1 [1,3-dimethylbenzene]
[2]
Conditions | mass density, 333.15 K [kg/m3] | mass density, 353.15 K [kg/m3] | vapor or sublimation pressure, 333.15 K [kPa] | vapor or sublimation pressure, 353.15 K [kPa]
Gas | 0.252 ± 0.1 | 0.5448 ± 0.1 | – | –
Liquid | 829.305 ± 0.24 | 811.602 ± 0.24 | 6.59 ± 0.05 | 15.09 ± 0.09

CCCCCCCCC [nonane]
[2]
Conditions | mass density, 333.15 K [kg/m3] | mass density, 353.15 K [kg/m3] | vapor or sublimation pressure, 333.15 K [kPa] | vapor or sublimation pressure, 353.15 K [kPa]
Gas | 0.1868 | 0.4513 ± 0.1 | – | –
Liquid | 685.961 ± 0.25 | 669.919 ± 0.25 | 3.97 ± 0.03 | 10.28 ± 0.06

Cc1ccccc1C [1,2-dimethylbenzene] + O=S1(=O)CCCC1
[1], x1 = 1
Conditions | mass density [kg/m3]
333.15 K | 845.839 ± 0.23
353.15 K | 828.528 ± 0.24

O=S1(=O)CCCC1 [sulfolane] + Cc1ccccc1C
mass density [kg/m3], [1]
Conditions | 333.15 K | 353.15 K
x2 = 0 | 1231.12 ± 1.3 | 1214.39 ± 1.3
x2 = 0.01 | 1227.27 ± 1.5 | 1210.53 ± 1.5
x2 = 0.015 | 1225.35 ± 1.5 | 1208.6 ± 1.5
x2 = 0.02 | 1223.42 ± 1.5 | 1206.67 ± 1.5
x2 = 0.03 | 1219.57 ± 1.5 | 1202.81 ± 1.5
x2 = 0.1 | 1192.25 ± 1.4 | 1175.45 ± 1.4
x2 = 0.2 | 1153.84 ± 1.2 | 1136.98 ± 1.2
x2 = 0.3 | 1115.37 ± 1.1 | 1098.46 ± 1.1
x2 = 0.4 | 1076.99 ± 1 | 1060.02 ± 1
x2 = 0.499 | 1038.59 ± 0.94 | 1021.56 ± 0.93
x2 = 0.599 | 1000.24 ± 0.88 | 983.157 ± 0.88
x2 = 0.699 | 961.436 ± 0.85 | 944.296 ± 0.85
x2 = 0.801 | 922.401 ± 0.82 | 905.202 ± 0.82
x2 = 0.899 | 884.731 ± 0.81 | 867.477 ± 0.81

Cc1ccccc1C [1,2-dimethylbenzene] + Cc1ccccc1
mass density [kg/m3], [1]
Conditions | 333.15 K | 353.15 K
x2 = 0 | 845.8 ± 0.23 | 828.5 ± 0.24
x2 = 0.102 | – | 826.692 ± 0.24
x2 = 0.108 | 844.136 ± 0.24 | –
x2 = 0.202 | – | 824.931 ± 0.24
x2 = 0.203 | 842.673 ± 0.24 | –
x2 = 0.299 | – | 823.222 ± 0.24
x2 = 0.301 | 841.173 ± 0.24 | –
x2 = 0.4 | 839.661 ± 0.24 | 821.449 ± 0.24
x2 = 0.499 | 838.134 ± 0.24 | 819.705 ± 0.24
x2 = 0.6 | – | 817.918 ± 0.24
x2 = 0.601 | 836.576 ± 0.24 | –
x2 = 0.699 | 835.072 ± 0.24 | 816.176 ± 0.24
x2 = 0.799 | – | 814.417 ± 0.24
x2 = 0.8 | 833.533 ± 0.24 | –
x2 = 0.899 | – | 812.661 ± 0.24
x2 = 0.9 | 831.999 ± 0.24 | –

c1ccccc1 [benzene] + CCCCCCCCC
[1], x1 = 1
Conditions | mass density [kg/m3]
333.15 K | 835.696 ± 0.16
353.15 K | 814.086 ± 0.16

Cc1ccccc1 [toluene] + Cc1ccccc1C
[1], x1 = 1
Conditions | mass density [kg/m3]
333.15 K | 830.467 ± 0.24
353.15 K | 810.89 ± 0.24

Cc1ccccc1C [1,2-dimethylbenzene]
[2]
Conditions | mass density, 333.15 K | mass density, 353.15 K | vapor or sublimation pressure, 333.15 K | vapor or sublimation pressure, 353.15 K
Gas | – | 0.4397 ± 0.1 kg/m3 and 0.4571 ± 0.1 kg/m3 | – | –
Liquid | 845.8 ± 0.23 kg/m3 and 845.839 ± 0.23 kg/m3 | 828.5 ± 0.24 kg/m3 and 828.528 ± 0.24 kg/m3 | 5.32 ± 0.04 kPa and 5.44 ± 0.04 kPa | 12.8 ± 0.08 kPa and 12.66 ± 0.08 kPa

Cc1ccccc1 [toluene]
[2]
Conditions | mass density, 333.15 K [kg/m3] | mass density, 353.15 K [kg/m3] | vapor or sublimation pressure, 333.15 K [kPa] | vapor or sublimation pressure, 353.15 K [kPa]
Gas | 0.6829 ± 0.1 | 1.3863 ± 0.1 | – | –
Liquid | 830.467 ± 0.24 | 810.89 ± 0.24 | 18.62 ± 0.1 | 38.4 ± 0.2
